Columns and labels:
Type in all cases: cell-based
[1] = test system: MECP2 mRNA; experiment: MECP2 mRNA in stellate cells; settings: average fold change; for Stellate MECP2 (Avg_FC) 1 uM: compound 1 uM; for Stellate MECP2 (Avg_FC) 10 uM: compound 10 uM
[2] = test system: MECP2 mRNA; experiment: MECP2 mRNA in primary human hepatocytes (donor 1, donor 2); settings: average fold change; for Human hep donor-1 MECP2 (Avg_FC) 1 uM / Human hep donor-1 MECP2 (Avg_FC) 10 uM: human hepatocytes donor-1; for Human hep donor-1 MECP2 (Avg_FC) 1 uM / Human hep donor-2 MECP2 (Avg_FC) 1 uM: compound 1 uM; for Human hep donor-1 MECP2 (Avg_FC) 10 uM / Human hep donor-2 MECP2 (Avg_FC) 10 uM: compound 10 uM; for Human hep donor-2 MECP2 (Avg_FC) 1 uM / Human hep donor-2 MECP2 (Avg_FC) 10 uM: human hepatocytes donor-2
Description: (§1) Human hepatocytes were obtained from two donors from Massachusetts General Hospital, namely MGH54 and MGH63, and one donor from Lonza, namely HUM4111B. Cryopreserved hepatocytes were cultured in plating media for 16 hours, transferred to maintenance media for 4 hours. Cultured on serum-free media for 2 hours, then a compound was added. The hepatocytes were maintained on the serum-free media for 16 hours prior to gene expression analysis. Primary human hepatocytes were stored in the vapor phase of a liquid nitrogen freezer (about −130° C.).
(§2) Human hepatocytes cultured as described above were plated in 24-well format, adding 375,000 cells per well in a volume of 500 ul plating medium. Four hours before treatment, cells were washed with PBS and the medium was changed to either: fresh maintenance medium (complete) or modified maintenance medium.
(§3) Compound stocks were prepared at 1000× final concentration and added in a 2-step dilution to the medium to reduce risk of a compound precipitating out of solution when added to the cells, and to ensure reasonable pipetting volumes. One at a time, each compound was first diluted 10-fold in warm (about 37° C.) modified maintenance medium (initial dilution=ID), mixed by vortexing, and the ID was diluted 100-fold into the cell culture (e.g. 5.1 ul into 1 well of a 24-well plate containing 0.5 mL medium). The plate was mixed by carefully swirling and after all wells were treated and returned to the incubator overnight. If desired, separate plates/wells were treated with vehicle-only controls and/or positive controls. If using multi-well plates, controls were included on each plate. After about 18 hours, cells were harvested for further analysis, e.g., ChIP-seq, RNA-seq, ATAC-seq, etc.
Samples were amplified using Taqman probes from ThermoFisher.

[3] = test system: UGT1A1; experiment: RNA-seq of UGT1A1 expression in compound-treated primary human hepatocytes
Description: as §1, §2, §3
This protocol is a modified version of the following protocols: MagMAX mirVana Total RNA Isolation Kit User Guide (Applied Biosystems #MAN0011131 Rev B.0), NEBNext Poly(A) mRNA Magnetic Isolation Module (E7490), and NEBNext Ultra Directional RNA Library Prep Kit for Illumina (E7420) (New England Biosystems #E74901).
The MagMAX mirVana kit instructions (the section titled “Isolate RNA from cells” on pages 14-17) were used for isolation of total RNA from cells in culture. Two hundred μl of Lysis Binding Mix was used per well of the multiwell plate containing adherent cells (usually a 24-well plate).
For mRNA isolation and library prep, the NEBNext Poly(A) mRNA Magnetic Isolation Module and Directional Prep kit was used. RNA isolated from cells above was quantified, and prepared in […] of each sample in 50 μl of nuclease-free water. This protocol may be run in microfuge tubes or in a 96-well plate.
Standard QC were applied (read integrity, mapping statistics, library complexity, fragment bias) to remove unsatisfactory samples. […] Log 2 fold change and significance values were computed using PME count data (with replicates explicitly modeled versus pan-experiment controls), median ratio normalized, using maximum likelihood estimation rather than maximum a posteriori, and disabling the use of Cook's distance cutoff when determining acceptable adjusted p-values. […] RNA-seq signals were also normalized by read depth and visualized using the UCSC browser.
To identify small molecules that modulate target gene expression, primary human hepatocytes were prepared as a monoculture, and at least one small molecule compound was applied to the cells.
RNA-seq was performed to determine the effects of the compounds on the expression of the target genes in hepatocytes. Fold change was calculated by dividing the level of expression in the cell system that had been perturbed by the level of expression in an unperturbed system. Changes in expression having a p-value ≤0.05 were considered significant.
Significance was defined as an FPKM ≥1, a log 2(fold change) ≥0.5, and a q-value of ≤0.05 for all targets except for CPOX.

COc1cccc(-c2cc(F)ccc2[C@H]2Cc3nc(N)nc(C)c3C(=O)N2)n1 [HSP-990]
Stellate MECP2 (Avg_FC) 1 uM [1]: 1.98 | Stellate MECP2 (Avg_FC) 10 uM [1]: 1.99 | Human hep donor-1 MECP2 (Avg_FC) 1 uM [2]: 2.54 | Human hep donor-1 MECP2 (Avg_FC) 10 uM [2]: 2.72 | Human hep donor-2 MECP2 (Avg_FC) 1 uM [2]: 1.27 | Human hep donor-2 MECP2 (Avg_FC) 10 uM [2]: 1.66

CC(C)n1nc(-c2ccc3oc(N)nc3c2)c2c(N)ncnc21 [INK-128]
Stellate MECP2 (Avg_FC) 1 uM [1]: 1.33 | Stellate MECP2 (Avg_FC) 10 uM [1]: 2.42 | Human hep donor-2 MECP2 (Avg_FC) 1 uM [2]: 2.16 | Human hep donor-2 MECP2 (Avg_FC) 10 uM [2]: 2.52

Cc1ccc2nc(NC(=O)CSc3nc4c(c(=O)n3-c3ccccc3)SCC4)sc2c1 [IWP-2]
UGT1A1 Fold Change (Log2) [3]: 0.64 Log2

NC(=O)c1ccc(I)c([N+](=O)[O-])c1 [Iniparib (BSI-201)]
Stellate MECP2 (Avg_FC) 1 uM [1]: 2.39 | Stellate MECP2 (Avg_FC) 10 uM [1]: 2.26 | Human hep donor-1 MECP2 (Avg_FC) 1 uM [2]: 2.28 | Human hep donor-1 MECP2 (Avg_FC) 10 uM [2]: 2.15

Cn1cc(-c2ccc3nnc(C(F)(F)c4ccc5ncccc5c4)n3n2)cn1 [JNJ-38877605]
UGT1A1 Fold Change (Log2) [3]: 1.09 Log2

O=C(O)c1ccccc1C(=O)Nc1ccc(-c2ccccc2)cc1 [Kartogenin]
UGT1A1 Fold Change (Log2) [3]: 2.24 Log2

CC(=O)c1cccc(-c2cccc(-c3ccn(CCN4CCOCC4)n3)c2)c1 [LRH-1 antagonist]
UGT1A1 Fold Change (Log2) [3]: 0.91 Log2

CN(C)C[C@@H]1CCn2cc(c3ccccc32)C2=C(C(=O)NC2=O)c2cn(c3ccccc23)CCO1.Cl [LY333531 HCl]
Stellate MECP2 (Avg_FC) 1 uM [1]: 1.26 | Stellate MECP2 (Avg_FC) 10 uM [1]: 2.15 | Human hep donor-1 MECP2 (Avg_FC) 1 uM [2]: 1.44 | Human hep donor-1 MECP2 (Avg_FC) 10 uM [2]: 2.14

Cn1cc(-c2ccc(F)c(C(F)(F)F)c2)nc1C1CCN(c2ncnc3[nH]ncc23)CC1 [LY2584702]
UGT1A1 Fold Change (Log2) [3]: 0.76 Log2

Cc1ccc(C(=O)OCc2ccc([C@@H](CN)C(=O)Nc3ccc4cnccc4c3)cc2)c(C)c1 [Netarsudil]
UGT1A1 Fold Change (Log2) [3]: 0.85 Log2

COc1ccc2[nH]c([S+]([O-])Cc3ncc(C)c(OC)c3C)nc2c1 (centres unmarked) [Omeprazole]
UGT1A1 Fold Change (Log2) [3]: 1.09 Log2

COc1cc2c(cc1OC)-c1c(OC)c(OC)cc3ccnc(c13)C2=O [Oxoglaucine]
UGT1A1 Fold Change (Log2) [3]: 0.83 Log2

CNC(=O)c1ccccc1Nc1cc(Nc2ccc(N3CCOCC3)cc2OC)ncc1C(F)(F)F [PND-1186]
UGT1A1 Fold Change (Log2) [3]: 0.90 Log2

CC(C)(C(=O)NCC(F)(F)C(F)(F)F)C(=O)N[C@@H]1C(=O)Nc2ccccc2-c2ccccc21 [RO4929097]
UGT1A1 Fold Change (Log2) [3]: 1.06 Log2

CCCn1c(=O)c2[nH]c(C34CC5CC(CC3C5)C4)nc2n(CCC)c1=O [Rolofylline (KW-3902), Rolofylline]
UGT1A1 Fold Change (Log2) [3]: 0.66 Log2

CC(C)[C@H](O)C(=O)N[C@@H](C)C(=O)N[C@@H]1C(=O)N(C)CCc2ccccc21 [Semagacestat]
UGT1A1 Fold Change (Log2) [3]: 1.01 Log2

BAM7
UGT1A1 Fold Change (Log2) [3]: 1.66 Log2

Pifithrin-a
UGT1A1 Fold Change (Log2) [3]: 1.44 Log2

meBIO
UGT1A1 Fold Change (Log2) [3]: 1.98 Log2

B1: Anti mullerian hormone: TGF-beta activator (protein, UniProt P03971 452-560, looked up)
Muellerian-inhibiting factor: SAGATAADGPCALRELSVDLRAERSVLIPETYQANNCQGVCGWPQSDRNPRYGNHVVLLLKMQVRGAALARPPCCVPTAYAGKLLISLSEERISAHHVPNMVATECGCR
UGT1A1 Fold Change (Log2) [3]: 0.59 Log2

B2: Wnt3a: FRIZZLED activator (protein, UniProt P56704 19-352, looked up)
Protein Wnt-3a: SYPIWWSLAVGPQYSSLGSQPILCASIPGLVPKQLRFCRNYVEIMPSVAEGIKIGIQECQHQFRGRRWNCTTVHDSLAIFGPVLDKATRESAFVHAIASAGVAFAVTRSCAEGTAAICGCSSRHQGSPGKGWKWGGCSEDIEFGGMVSREFADARENRPDARSAMNRHNNEAGRQAIASHMHLKCKCHGLSGSCEVKTCWWSQPDFRAIGDFLKDKYDSASEMVVEKHRESRGWVETLRPRYTYFKVPTERDLVYYEASPNFCEPNPETGSFGTRDRTCNVSSHGIDGCDLLCCGRGHNARAERRREKCRCVFHWCCYVSCQECTRVYDVHTCK
UGT1A1 Fold Change (Log2) [3]: 0.59 Log2

From patent US20210161997A1, “TREATING DISEASES VIA TARGETED MODULATION OF GENE SIGNALING NETWORKS” (Camp4 Therapeutics Corporation, priority 2018, published 2021)
